Reference: patent US20120283302A1, “SCCA-1 PRODUCTION INHIBITOR HAVING A CARBOXAMIDE DERIVATIVE AND/OR A SALT THEREOF AS AN ACTIVE INGREDIENT” (SHISEIDO COMPANY, LTD, priority 2009, published 2012)

Key:
Human SCCA1 = assay: SCCA-1 expression-inhibiting effect in cultured human keratinocytes (quantitative PCR, G3PDH internal standard); type: cell-based; conditions: 24 hours after addition at different concentrations, vs no-drug negative control, FIG. 1-3
Experimental: SCCA-1 expression-inhibiting effects of carboxyamide derivatives in cell line:
Human keratinocytes were cultured, and carboxyamide derivatives at different concentrations were added at 60-70% confluency. The carboxyamide derivatives used were the following:
After 24 hours, the RNA was obtained, and then it was subjected to a quantitative PCR analysis by ABI PRISM 7900HT Sequence Detector System (Taqman PE) (Applied Biosystems) with using a primer/probe combination shown below, thereby the amount of SCCA gene expression was measured (using G3PDH as the internal standard). • Human SCCA1 • Forward primer: 5′-GTGCTATCTGGAGTCCT-3′ (SEQ ID NO: 1) • Reverse primer: 5′-CTGTTGTTGCCAGCAA-3′ (SEQ ID NO: 2) • Probe: 5′-CATCACCTACTTCAACT-3′ (SEQ ID NO: 3) • Human G3PDH • Forward primer: 5′-GAAGGTGAAGGTCGGAGTC-3′ (SEQ ID NO: 4) • Reverse primer: 5′-[…]-3′ (SEQ ID NO: 5) • Probe: 5′-[…]-3′ (SEQ ID NO: 6)

SCAA-2 = conditions: known from Japanese Patent Application No. 2008-903571; cited from earlier work
SCAA-1 = conditions: known from Japanese Patent Application No. 2008-903571; cited from earlier work

SMILES	SCCA-1 gene expression (Human SCCA1)	gene expression-inhibiting effect on SCAA-2 (SCAA-2)	gene expression-inhibiting effect on SCAA-1 (SCAA-1)
O=C1CCCN1CCO [1-(2-hydroxyethyl)-2-pyrrolidone]	significant dose-dependent reduction in SCCA-1 gene expression		
NC(N)=O [urea]	significant dose-dependent reduction in SCCA-1 gene expression		
O=C1NCCN1 [ethyleneurea]	significant dose-dependent reduction in SCCA-1 gene expression		
O=C1NCCN1CCO [1-(2-hydroxyethyl)-2-imidazolidinone]	significant dose-dependent reduction in SCCA-1 gene expression		
NC(=O)NC1NC(=O)NC1=O (stereo not shown) [allantoin]	significant dose-dependent reduction in SCCA-1 gene expression		
O=C(O)CCN1CCCCC1 [1-piperidinepropionic acid (1-PP), 1-piperidinepropionic acid]		gene expression-inhibiting effect	gene expression-inhibiting effect
